Data on 15 molecules can be found in paper PMC8130611 (ACS infectious diseases, 2021).

Entries after “also recorded” stand apart in the source; their conditions may differ.

For series [1], the target named is SARS-CoV-2-S-RBD–hACE2 PPI (Severe acute respiratory syndrome coronavirus 2, UniProt P0DTC2). Type of series: binding, human. To be noted: for IC50: read-out: IC50, inhibition of SARS-CoV-2-RBD binding to hACE2.
Another series has as its system SARS-CoV. To be noted: cited from earlier work.
The subject of series [2] is BacMam-based pseudovirus bearing the SARS-CoV-2 S protein. It is filed as cell-based.
Another series deals with THP-1 human cells. Conditions: concentrations of up to 200 μM; ref [61], [62]; cited from earlier work.
For the next series, the target named is TNF-R1–TNF-α interaction (Homo sapiens, UniProt P01375+P19438). Briefly: cell-free ELISA-type counter-assay, inhibition of TNF-R1–TNF-α interaction. Type of series: binding. Background: In an ELISA, binding on a coated surface is turned into a signal by an enzyme label.
TNF-R1–TNF-α interaction, sequence (P19438 30-211): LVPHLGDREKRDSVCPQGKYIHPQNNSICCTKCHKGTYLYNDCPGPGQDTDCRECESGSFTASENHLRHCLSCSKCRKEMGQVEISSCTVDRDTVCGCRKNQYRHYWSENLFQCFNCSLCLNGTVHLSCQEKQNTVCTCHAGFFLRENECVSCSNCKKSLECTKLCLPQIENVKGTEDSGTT
TNF-R1–TNF-α interaction, sequence (P01375 85-233): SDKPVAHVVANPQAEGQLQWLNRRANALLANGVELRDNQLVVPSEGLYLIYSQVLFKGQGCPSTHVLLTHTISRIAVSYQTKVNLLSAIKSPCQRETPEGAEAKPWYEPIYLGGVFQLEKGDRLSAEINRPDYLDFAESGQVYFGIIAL

Consider `O=S(=O)([O-])c1ccc(N=Nc2c(O)ccc3cc(S(=O)(=O)[O-])ccc23)cc1.[Na+].[Na+]` [sunset yellow FCF], for which the “inhibitory activity on SARS-CoV-2-RBD–hACE2 binding (in words)” value (“inhibitory activity” for short) in series [1] was “no inhibitory activity”.
`CN1CCN(c2ccc(CNC(=O)c3ccno3)cc2)CC1` [SSAA09E2]: the “activities of previously identified candidates” value in the series with SARS-CoV is 3.1 µM.
For `CCOc1ccc(N=Nc2ccc(-c3ccc(N=Nc4c(O)ccc5cc(S(=O)(=O)O)cc(S(=O)(=O)O)c45)c(C)c3)cc2C)cc1` [calcomine scarlet 3B], the IC50 in series [1] turned out to be 4250 nM.
For the molecule `O=C([O-])c1c(Cl)c(Cl)c(Cl)c(Cl)c1-c1c2cc(Br)c(=O)c(Br)c-2oc2c(Br)c([O-])c(Br)cc12.[Na+].[Na+]` [phloxine B], the “activity in screening for inhibitors of SARS-CoV-2 RBD binding” value (from here on “activity in screening for inhibitors”) in series [1] is listed as “strongest activity”.
`Cc1ccc(C(=O)Nc2ccc(S(=O)(=O)O)c3cc(S(=O)(=O)O)cc(S(=O)(=O)O)c23)cc1NC(=O)c1cccc(NC(=O)Nc2cccc(C(=O)Nc3cc(C(=O)Nc4ccc(S(=O)(=O)O)c5cc(S(=O)(=O)O)cc(S(=O)(=O)O)c45)ccc3C)c2)c1` [suramin]: the “inhibitory activity” value in series [1] was “neither chloroquine nor suramin showed inhibitory activity; also recorded: no activity”.
With `CCN(CCO)CCCC(C)Nc1ccnc2cc(Cl)ccc12` (stereo not shown) [hydroxychloroquine], the “inhibition of pseudovirus entry (BacMam), in words” value in series [2] was “did not show any significant inhibition; also recorded: no effect”.
Take `O=C([O-])c1c(Cl)c(Cl)c(Cl)c(Cl)c1-c1c2cc(I)c(=O)c(I)c-2oc2c(I)c([O-])c(I)cc12.[Na+].[Na+]` [rose Bengal]: the “activity in screening for inhibitors” value in series [1] is “strongest activity”.
In the case of `O=C(Nc1ccc(-c2ccc(C(=O)Nc3cccc4cccc(S(=O)(=O)O)c34)cc2)cc1)c1ccc([N+](=O)[O-])cc1` [DRI-C21041], in the series with THP-1 human cells, the “effect on viability of THP-1 human cells” value is given as “did not have significant effects”.
In the case of `CN(C)c1ccc2nc3ccc(=[N+](C)C)cc-3sc2c1` [methylene blue], the “activity in screening for inhibitors” value in series [1] was “promising inhibitory activity”.
Regarding `Nc1ccc(N=Nc2ccc(-c3ccc(N=Nc4c(S(=O)(=O)O)cc5cc(S(=O)(=O)O)c(N=Nc6ccccc6)c(O)c5c4N)cc3)cc2)c(N)c1` [chlorazol black], in series [1], the IC50 was 2570 nM.
For erythrosine B, in series [1], the “activity in screening for inhibitors” value was “strongest activity” and the IC50 was determined as 400 nM.
For `CCN(CC)CCCC(C)Nc1ccnc2cc(Cl)ccc12` (stereo not shown) [chloroquine], the “cytotoxicity (MTS)” value in the series on HEK293T cells was “noticeable cytotoxicity”.
Turning to `Nc1c(N=Nc2ccc([N+](=O)[O-])cc2)c(S(=O)(=O)[O-])cc2cc(S(=O)(=O)[O-])c(N=Nc3ccccc3)c(O)c12.[Na+].[Na+]` [naphthol blue black], the “inhibitory activity” value in series [1] is on record as “no inhibitory activity”.
As for `Nc1c(/N=N/c2ccc(-c3ccc(/N=N/c4cc(S(=O)(=O)O)c5ccccc5c4N)cc3)cc2)cc(S(=O)(=O)O)c2ccccc12` [Congo red], the IC50 against TNF-R1–TNF-α interaction is 6 µM.
As for `OC(COc1cccc(OCC(O)CN2CCCCC2)c1)CN1CCCCC1` (stereo not shown) [VE607], in the series with SARS-CoV, the “activities of previously identified candidates” value was 1.6 µM.

A word on the IC50: it is the midpoint of a concentration-inhibition curve.
